The values that follow are results of earlier work, collected in US6071923A, “Retinoyloxy aryl-substituted alkylene butyrates useful for the treatment of cancer and other proliferative diseases” (Bar-Ilan University, priority 1997, dated 2000).

Where “and” joins values, the source holds several entries; their conditions need not be identical. Equal entries are not always repeated. Where two headings read alike, the source gives them in different places.

The series concerns HL-60 cells.
Where [1] appears, read: HL-60 human promyelocytic cell line, agent alone, read-out: ED50, induction of differentiation of HL-60 cells, agent alone.

Regarding `CCCC(=O)O` [BA, Butyric acid], the “dose reduction index value” (HL-60 cells, BA ED50 alone versus with about 28 nM RA) is listed as “about 6 fold”. Moreover, the EC50 (HL-60 cells, BA combined with about 28 nM RA, read-out: ED50 value for BA in combination with RA) is approximately 75 µM; the EC50 under setting [1] is 444 µM and ~400 µM.
Regarding `CC1=C(/C=C/C(C)=C/C=C/C(C)=C/C(=O)O)C(C)(C)CCC1` [RA, retinoic acid], the EC50 under setting [1] is 0.13 µM.
